Format in all cases: cell-based
Test [1] deals with LC3II/I ratio in C2C12 cells. The experiment in a line: Autophagy flux (LC3II/I ratio), C2C12 cells. The following applies: 24 hours with 400 uM H2O2, FIG. 6A. Here is the method:
(§1) Treatments and cells. 6-hour and 24-hour cell culture treatments were with one of the following compounds: 1. Control or “vehicle” (DMSO+phosphate-buffered saline only); 2. Niagen (5 μg/mL); 3. BHB (beta hydroxybutyrate) (30 ug/mL); 4. CBD (cannabidiol) (5 ug/mL); 5. Olive leaf (5 ug/mL); 6. Dynamine (1 ug/mL); 7. Selenium (2 ug/mL); 8. Tributyrin (5 ug/mL)
(§2) Treatment materials and methods. C2C12 cells were treated with compounds 1-8 as listed above for 6 hours without hydrogen peroxide (H2O2) (termed “unperturbed cells” throughout); or cells were treated with compounds 1-8 above for 24 hours with a concomitant 400 uM hydrogen peroxide (H2O2).
Autophagy flux (or activity) was assessed by assaying the LC3II/I ratio. This assay has been deemed the “gold standard” in autophagy monitoring (see e.g., Autophagy, 2007 Nov.-Dec.; 3(6):542-5).
(§3) Western blot analysis was performed using antibodies that detected p-H2AX protein, LC3I, LC3II, 4HNE, and NLRP3 proteins in both the C2C12 and EOMA cells. Ponceau stain was used for protein staining.

The test system of another test is 4HNE in C2C12 cells. The experiment in a line: Oxidative stress (4HNE assay), C2C12 cells. The following applies: C2C12 cells co-incubated with H2O2, FIG. 6C. As for the experimental part:
as §1, §2
Oxidative stress was assessed using the 4HNE assay which is a product of cellular lipid oxidation (see e.g., Am J Physiol Cell Physiol. 2016 Oct. 1; 311(4): C537-0543).
as §3

Another test relates to C2C12 cells. The experiment in a line: Total antioxidant capacity (TEAC assay), C2C12 cells with H2O2. The following applies: C2C12 cells co-incubated with H2O2, FIG. 5B. As for the experimental part: Treatments and cells. 6-hour and 24-hour cell culture treatments were with one of the following compounds: 1. Control or “vehicle” (DMSO+phosphate-buffered saline only); 2. […] (5 μg/mL); 3. BHB (beta hydroxybutyrate) (30 ug/mL); 4. […] Olive leaf (5 ug/mL); 6. Dynamine (1 ug/mL); 7. […] Tributyrin (5 ug/mL) Treatment materials and methods. […] Total antioxidant capacity was assessed using a Trolox equivalent antioxidant capacity (TEAC) assay.

The values below come from US12697340B2, “Compositions and methods for cellular ageing, stress resilience, autophagy, inflammation and longevity” (JUVN3 Holdings, LLC, priority 2018, dated 2026).

Regarding `CC(O)CC(=O)O` (stereo not drawn) [BHB, beta hydroxybutyrate], the “autophagy (LC3II/I ratio)” value in test [1] is reported as “increased autophagy”. In addition, the “cellular oxidative stress (4HNE)” value in the test with 4HNE in C2C12 cells was “decrease cellular oxidative stress”.

For the compound `C=C(C)[C@@H]1CCC(C)=C[C@H]1c1c(O)cc(CCCCC)cc1O` [CBD, cannabidiol], in test [1], the “autophagy (LC3II/I ratio)” value is “increased autophagy”.

As to `[Se]` [selenium], the “total antioxidant capacity (Trolox)” value with C2C12 cells is “increase (e.g., restore) total antioxidant activity”; with C2C12 cells (listed as Selenium) it was “increase or restore antioxidant capacity”. For the same compound, in test [1], the “autophagy (LC3II/I ratio)” value is “increased autophagy”.

On to `CCCC(=O)OCC(COC(=O)CCC)OC(=O)CCC` [tributyrin], for which the “total antioxidant capacity (Trolox)” value with C2C12 cells is recorded as “increase (e.g., restore) total antioxidant activity”; with C2C12 cells (listed as Tributyrin), “increase or restore antioxidant capacity”.
